Measured values taken from US11753408B2, “Compounds and method for blocking transmission of malarial parasite” (The United States of America, as represented by the …, priority 2016, dated 2023).
Read-outs that look alike come from different tables or passages of the source.

Legend:
Solubility at pH 7.4 = assay type: physicochemical
[1] = Microsomal stability (rat); assay type: in vitro ADME; conditions: rat microsomes
mTOR = mTOR (Homo sapiens, UniProt P42345); test: mTOR activity (no method described); assay type: biochemical
[2] = test system: Asexual parasites of P. falciparum strain 3D7; test: In vitro drug activity on asexual parasites (SYBR Green assay); assay type: cell-based, Plasmodium falciparum
Method: Cell culture. Asexual parasites of P. falciparum strain 3D7 were cultured as described previously [Trager W, et al., Journal of Parasitology 2005, 91: 484-486], Stage III-V gametocytes were selected and enriched with 3-day treatment with 50 mM N-acetylglucosamine (NAG) and the following Percoll density gradient centrifugation after gametocyte production [Tanaka T Q, et al., Molecular and Biochemical Parasitology, 2011, 111: 160-163], Gametocytes of HB3 and Dd2 strains were produced and then set up for assay in a similar process. HepG2 cells (ATCC, cat. no. 77400) were cultured in 175-cm^2 tissue culture flasks with 30 ml growth medium at 37° C. in a 5% CO2 humidified atmosphere. Growth medium was made with Dulbecco's Modified Eagle Medium with 10% fetal bovine serum (FBS). Growth medium was replaced every other day and cells were passed at 75% confluence.
Asexual parasites of P. falciparum strain 3D7 were cultured as described previously (Trager, W. et al., J. Parasitol. 2005, 91(3): 484-486). Drug activity on asexual stage parasites was tested using a SYBR Green assay as described previously (Eastman, R. T. et al., Antimicrob. Agents Chemother. 2013, 57(1): 425-435; Smilkstein, M. et al., Antimicrob. Agents Chemother. 2004, 48(5): 1803-1806). Briefly, parasites were diluted to 0.5% parasitemia in complete culture medium with 2% hematocrit and drugs diluted in DMSO (≤0.5%) and were loaded into a 96-well plate (200 μl/well). No drug and RBC alone wells were included as positive and background controls, respectively, and each testing condition was examined in duplicated. After 72 h incubation under the standard culture condition and a freeze-thaw lysis step at −80° C. and room temperature, 100 μl/well of lysis buffer containing SYBR Green I was added to the parasite culture and incubated for 30 min at room temperature. The fluorescence of each well was measured at 520 nm following excitation at 490 nm using a FLUOstar Optima™ microplate reader (BMG Labtech).

[3] = P. falciparum 3D7 asexual parasites, 72 h, SYBR Green

Compound	Sol @ pH 7.4 (Solubility at pH 7.4) [ug/mL]	Microsomal Stability (rat) T1/2 [1] [min]	mTOR (mTOR) [µM]	EC50 [2] [nM]	EC50 [2, 3] [nM]
O=C(c1ccc(-n2c(=O)ccc3c(Cl)nc4ccc(-c5ccc(Cl)cc5)cc4c32)cc1)N1CCOCC1 [Compound 210]	<1	2.7	100	14500	–
COc1cc(C(=O)NCCCN2CCS(=O)(=O)CC2)ccc1-n1c(=O)ccc2cnc3ccc(-c4ccc(Cl)cc4)cc3c21 [Compound 226]	–	–	8.446	208	–
CCN(CC)CCCNC(=O)c1ccc(-n2c(=O)ccc3cnc4ccc(-c5ccc(Cl)cc5)cc4c32)c(OC)c1 [Compound 228]	–	–	11.22	195	–
COc1cc(C(=O)NCCCN2CCCCC2)ccc1-n1c(=O)ccc2cnc3ccc(-c4ccc(Cl)cc4)cc3c21 [Compound 229]	–	–	19.25	232	–
COc1cc(C(=O)NCCCN(C)C)ccc1-n1c(=O)ccc2cnc3ccc(-c4ccc(Cl)cc4)cc3c21 [Compound 230]	–	–	50	98.2	–
COc1cc(C(=O)NCCN2CCCC2)ccc1-n1c(=O)ccc2cnc3ccc(-c4ccc(Cl)cc4)cc3c21 [Compound 248]	51.2	10.6	23.38	329	–
COc1cc(C(=O)NCCN2CCN(C)CC2)ccc1-n1c(=O)ccc2cnc3ccc(-c4ccc(Cl)cc4)cc3c21 [Compound 252]	–	–	100	–	–
CCC(=O)N(CC)CCNC(=O)c1ccc(-n2c(=O)ccc3cnc4ccc(-c5ccc(Cl)cc5)cc4c32)cc1 [Compound 305]	–	–	4.727	483	–
O=C(NCCC1CCN(C2COC2)CC1)c1ccc(-n2c(=O)ccc3cnc4ccc(-c5ccc(Cl)cc5)cc4c32)cc1 [Compound 306]	–	–	8.864	100	–
CN1CCN(Cc2ccc(-c3ccc4ncc5ccc(=O)n(-c6ccc(C(=O)NC7CC7)cc6)c5c4c3)cc2)CC1 [Compound 307]	–	–	39.9	191	–
O=C(NCCN1CCCC1=O)c1ccc(-n2c(=O)ccc3cnc4ccc(-c5ccc(Cl)cc5)cc4c32)cc1 [Compound 309]	–	–	3.824	554	–
CCC(=O)N(C)CCNC(=O)c1ccc(-n2c(=O)ccc3cnc4ccc(-c5ccc(Cl)cc5)cc4c32)cc1 [Compound 310]	–	–	3.373	414	–
N#Cc1cc(-n2c(=O)ccc3cnc4ccc(-c5ccc(Cl)cc5)cc4c32)ccc1C(=O)NC1CC1 [Compound 312]	–	–	500	1850	–
Nc1nc2ccc(-c3ccc(Cl)cc3)cc2c2c1ccc(=O)n2-c1ccc(C(=O)N2CCOCC2)cc1 [Compound 314]	–	–	0.78	429	–
O=C(NC1CC1)c1ccc(-n2c(=O)ccc3cnc4ccc(-c5ccc(Cl)cc5)cc4c32)cn1 [Compound 315]	–	–	100	137	–
COc1cc(C(=O)NCCN(C)C)ccc1-n1c(=O)ccc2cnc3ccc(-c4ccc(F)c(O)c4)cc3c21 [Compound 316]	–	–	8.154	412	–
COc1cc(C(=O)NCCN(C)C)ccc1-n1c(=O)ccc2cnc3ccc(-c4ccc(Cl)cc4)cc3c21 [Compound 317]	–	–	8.572	202	–
NC1(c2ccc(-c3ccc4ncc5ccc(=O)n(-c6ccc7c(c6)CNS7(=O)=O)c5c4c3)cc2)CC1 [Compound 383]	–	–	–	–	62.3
O=C1c2ccc(-n3c(=O)ccc4cnc5ccc(-c6ccc(Cl)cc6)cc5c43)cc2C(=O)N1C1CC1 [Compound 384]	–	–	–	–	1320
Cc1ccc(C#N)cc1-n1c(=O)n(C)c2cnc3ccc(-c4ccc[nH]4)cc3c21 [Compound 419]	–	–	30.38	82.9	–
Cc1ccc(C#N)cc1-n1c(=O)n(C)c2cnc3ccc(-c4cccn4C)cc3c21 [Compound 420]	–	–	30.22	144	–

Further compounds by falling EC50 [2], results first:

Sol @ pH 7.4 (Solubility at pH 7.4) [ug/mL]	Microsomal Stability (rat) T1/2 [1] [min]	mTOR (mTOR) [µM]	EC50 [2] [nM]	EC50 [2, 3] [nM]	Compound
–	–	30.6	75.2	–	Cc1cc(N2CCNCC2)c(C#N)cc1-n1c(=O)n(C)c2cnc3ccc(-c4ccc(F)c(C#N)c4)cc3c21 [Compound 427]
–	–	16	66.5	–	COc1cc(C(=O)NCCCN(CCO)CCO)ccc1-n1c(=O)ccc2cnc3ccc(-c4ccc(Cl)cc4)cc3c21 [Compound 227]
0	2.1	5.024	62.4	–	O=C(NCCCN1CCCCC1)c1ccc(-n2c(=O)ccc3cnc4ccc(-c5ccc(Cl)cc5)cc4c32)cc1 [Compound 260]
0	1.7	1.871	60	–	O=C(NCCCN1CCS(=O)(=O)CC1)c1ccc(-n2c(=O)ccc3cnc4ccc(-c5ccc(Cl)cc5)cc4c32)cc1 [Compound 261]
–	–	4.622	58.5	–	Cc1cc(NCCN(C)C)c(C#N)cc1-n1c(=O)n(C)c2cnc3ccc(-c4cccc(C#N)c4)cc3c21 [Compound 430]
–	–	5.83	55.3	–	CN(C)CCN(C)C(=O)c1ccc(-n2c(=O)ccc3cnc4ccc(-c5ccc(Cl)cc5)cc4c32)cc1 [Compound 299]
–	–	0.1982	53.3	–	CC(C)(O)CNC(=O)c1ccc(-n2c(=O)ccc3cnc4ccc(-c5ccc(Cl)cc5)cc4c32)cc1 [Compound 311]
–	–	15.4	50.4	–	CC(=O)N1CCN(c2cc(C)c(-n3c(=O)n(C)c4cnc5ccc(-c6cccc(C#N)c6)cc5c43)cc2C#N)CC1 [Compound 423]
–	–	5	48.4	–	Cc1ccc(C#N)cc1-n1c(=O)n(C)c2cnc3ccc(-c4ccoc4)cc3c21 [Compound 425]
–	–	1.429	39	–	Cc1cc(C(=O)NCCN2CCNCC2)ccc1-n1c(=O)ccc2cnc3ccc(-c4ccc(Cl)cc4)cc3c21 [Compound 313]
0	24.4	2.541	34.3	–	CN(C)CCCNC(=O)c1ccc(-n2c(=O)ccc3cnc4ccc(-c5ccc(Cl)cc5)cc4c32)cc1 [Compound 258]
–	–	3.792	32.7	–	CCN(CCN(C)C)C(=O)c1ccc(-n2c(=O)ccc3cnc4ccc(-c5ccc(Cl)cc5)cc4c32)cc1 [Compound 300]
–	–	6.418	29.4	–	Cc1cc(N2CC(N)C2)c(C#N)cc1-n1c(=O)n(C)c2cnc3ccc(-c4cccc(C#N)c4)cc3c21 [Compound 426]
–	–	11	27.8	–	Cc1cc(N2CC(N)C2)c(C#N)cc1-n1c(=O)n(C)c2cnc3ccc(-c4ccc(F)cc4)cc3c21 [Compound 428]
0	2.6	0.6559	24.2	–	O=C(NCCCN(CCO)CCO)c1ccc(-n2c(=O)ccc3cnc4ccc(-c5ccc(Cl)cc5)cc4c32)cc1 [Compound 259]
–	–	2.099	23.6	–	O=C(NC1CC1)c1ccc(-n2c(=O)ccc3cnc4ccc(-c5ccc(Cl)c(F)c5)cc4c32)cc1 [Compound 308]
–	–	12.51	23	–	Cc1ccc(C#N)cc1-n1c(=O)n(C)c2cnc3ccc(-c4ccsc4)cc3c21 [Compound 424]
0	>30	0.994	19.3	–	O=C(NCCN1CCNCC1)c1ccc(-n2c(=O)ccc3cnc4ccc(-c5ccc(Cl)cc5)cc4c32)cc1 [Compound 98]
–	–	0.8535	19.2	–	N#CC1(NC(=O)c2ccc(-n3c(=O)ccc4cnc5ccc(-c6ccc(Cl)cc6)cc5c43)cc2)CC1 [Compound 304]
–	–	18.94	18.9	–	Cc1cc(N2CCNCC2)c(C#N)cc1-n1c(=O)n(C)c2cnc3ccc(-c4cccs4)cc3c21 [Compound 421]
–	–	6.1	17.1	–	Cc1ccc(C#N)cc1-n1c(=O)n(C)c2cnc3ccc(-c4cccc(S(N)(=O)=O)c4)cc3c21 [Compound 433]
–	–	12.57	10.5	–	CC(=O)N1CCN(c2cc(C)c(-n3c(=O)n(C)c4cnc5ccc(-c6ccc(Cl)cc6)cc5c43)cc2C#N)CC1 [Compound 429]
–	–	0.7002	7.93	–	Cn1c(=O)n(-c2ccc(N3CCNCC3)c(C#N)c2)c2c3cc(-c4cccc(C#N)c4)ccc3ncc21 [Compound 418]
–	–	1.87	5.87	–	CC(=O)N1CCN(c2cc(C)c(-n3c(=O)n(C)c4cnc5ccc(-c6ccc(F)cc6)cc5c43)cc2C#N)CC1 [Compound 422]
